Values of other authors, collected in patent publication US10864304B2, “Anti-infective antimicrobial-containing biomaterials” (ATRIUM MEDICAL CORPORATION, priority 2009, dated 2020).

Tested on: bacteria
Settings: previously reported (K. C. Chaw et al. 2005)

For `[Ag]` [silver], the “amount of silver needed to produce an antimicrobial effect” value is listed as about 50 ppb.
